Converted amounts (≈) assume the structure as drawn.
Conditions: for aqueous solubility: pH 6.8

Structure (SMILES) | MDR1-MDCK efflux ratio | intrinsic clearance, human liver microsomes [mL/min/kg] | intrinsic clearance, rat liver microsomes [mL/min/kg] | fraction unbound, human plasma | fraction unbound, rat plasma | aqueous solubility [µg/mL]
CN1CCc2nc(C(=O)N[C@H]3C[C@@H](C(=O)N(C)C)CC[C@@H]3NC(=O)C(=O)Nc3ccc(Cl)cn3)sc2C1 | 178 | ≤ 4.74 | ≤ 10.7 | – | – | –
O=C(NC1CCNCC1)c1ccc2cn[nH]c2c1 | – | 16.1 | – | 1 | 0.511 | –
NC(=O)Cn1cc(-c2ccc(F)cc2)cn1 | 0.87 | ≤ 4.74 | ≤ 10.7 | – | – | 28 (≈ 128 µM)
O=S(=O)(NCc1n[nH]c2c1CCCCC2)c1ccc(OC(F)F)cc1 | 7.25 | 361 | 1760 | – | – | –
COc1ccc(OC)c(C(=O)/C=C/c2ccccc2)c1 | – | 163 | 1960 | – | – | –
O=C(c1ccc(F)c(F)c1)N1CCN(C(=O)c2nc(Cl)ccc2Cl)CC1 | 4.42 | ≤ 4.74 | 23.3 | – | – | 61.7 (≈ 154 µM)
CN1CCC(C(=O)N2CCC(c3cc(C(F)(F)F)c4c(n3)CCNC4=O)CC2)CC1 | 5.17 | ≤ 4.74 | 11 | – | – | 52.3 (≈ 123 µM)
N=C(NC(=O)OCc1ccccc1)c1ccc(CN)cc1 | – | – | – | – | – | 30.6 (≈ 108 µM)
Cc1ccc(C(=O)NC2CCN(CC#N)CC2)cc1Br | 0.9 | ≤ 4.74 | 97.6 | – | – | 2.04 (≈ 6.07 µM)
Cc1ccc(Cn2nc(C)c(C(N)=O)c2Cl)cc1 | 0.663 | 7.25 | 358 | – | – | 24.4 (≈ 92.6 µM)
CCCCOc1ccccc1-c1cc(C(=O)NCCc2cccs2)[nH]n1 | 0.459 | – | – | – | – | 0.37 (≈ 1 µM)
N#Cc1ccc(-c2csc(CCN3CCCC3=O)n2)cc1 | 0.985 | 5.81 | 67.4 | – | – | 25.1 (≈ 84.3 µM)
Cc1ccc(NC(=O)CN2CCCN(c3ccc(C(F)(F)F)cn3)CC2)c(F)c1 | 1.09 | 141 | 643 | – | – | 24.6 (≈ 59.9 µM)
O=C(NCc1ccccc1)c1ccc(NS(=O)(=O)c2ccc(C3CCCCC3)cc2)cc1 | 2.69 | 81 | 402 | – | – | 1.57 (≈ 3.5 µM)
COC(=O)C1=NOC2(CCN(CCC(C)(C)C)CC2)C1 | 0.474 | 144 | 301 | – | – | –
COc1ccccc1N1CCN(c2nc(-c3ccc(F)cc3)cc(=O)[nH]2)CC1 | 2.15 | – | – | – | – | 0.2 (≈ 0.526 µM)
N#Cc1nc(-c2ccccc2)oc1NCc1ccccc1 | – | 197 | 2470 | – | – | –
COc1cccc(-n2c(S)nnc2COc2cccc3ccccc23)c1 | 1.07 | – | – | – | – | 0.26 (≈ 0.715 µM)
CN(CCOCCOc1ccccc1-c1ccccc1)Cc1ccccc1.O=C(O)C(=O)O | 1.82 | 216 | 1520 | – | – | 29
CC(=O)N1CCN(C(=O)CCc2ccc(-c3ccccc3)[nH]2)CC1 | 8.83 | ≤ 4.74 | 59.6 | – | – | 61.8 (≈ 190 µM)
O=C(NCCCNC(=O)c1cc2ccccc2[nH]1)c1ccc2c(c1)OCCO2 | 6.74 | 19.3 | 283 | – | – | 40.5 (≈ 107 µM)
CC(C)(C)CCCNC(=O)N1CCN(Cc2ccon2)CC1 | 1.5 | 17.1 | 623 | – | – | –
Cc1ccc(C)c2nc3c(cc12)CNCCO3 | 0.525 | 23.7 | 234 | – | – | –
O=C(Nc1ccncc1)[C@H]1CCCN(S(=O)(=O)c2ccc(Cl)cc2)C1 | 20 | 22.2 | 721 | – | – | –
Cc1c[nH]c(=O)n1-c1ccc(C(=O)Nc2ccc3ccccc3n2)cc1 | 10.2 | 8.88 | 49.4 | 0.0436 | – | 5.9 (≈ 17.1 µM)
COc1cc(C(=O)O)c(N)c(OC)c1OC | 1.69 | ≤ 4.74 | ≤ 10.7 | – | – | 53.9 (≈ 237 µM)
O=c1c2ccccc2nc2n1CCN(Cc1ccc(F)cc1)CC2 | 0.471 | 37.1 | 565 | – | – | –
Cc1c(C(=O)N2CCC(C(=O)Nc3ccc4c(c3)OCO4)CC2)oc2c(F)cccc12 | 0.872 | 58.3 | 545 | – | – | 11 (≈ 26 µM)
Cc1nc2ccc(C(=O)NCCCN3Cc4ccccc4C3)cc2[nH]1 | – | – | – | – | – | 52.4 (≈ 157 µM)
COc1ccc(C(=O)c2ccc(Cl)cc2)c(OC)c1 | 0.522 | 87.4 | 1750 | – | – | –

More lines, now with the values ahead:

MDR1-MDCK efflux ratio | intrinsic clearance, human liver microsomes [mL/min/kg] | intrinsic clearance, rat liver microsomes [mL/min/kg] | fraction unbound, human plasma | fraction unbound, rat plasma | aqueous solubility [µg/mL] | Structure (SMILES)
– | 78.9 | 448 | – | – | – | c1ccc(-c2nccc(NCc3nnc4n3CCCCC4)n2)cc1
– | 8.46 | 72.9 | – | – | – | COc1c(C)cnc(Cn2cnc3c(Cl)nc(N)nc32)c1C
0.666 | 7.77 | 46.9 | – | – | – | CCc1ccc(CNc2nncs2)o1
29.2 | 150 | 1300 | – | – | – | Cc1cc(C)cc(OCCN(C)C(=O)NCCN2CCCCC2=O)c1
0.795 | ≤ 4.74 | 194 | – | – | – | Cc1ccccc1S(=O)(=O)Nc1c(C)ccnc1Cl
0.687 | ≤ 4.74 | 80.1 | – | – | 45.8 (≈ 171 µM) | CCOC(=O)c1cccnc1-c1cccc2ccnn12
0.838 | ≤ 4.74 | 28.4 | – | – | 39.2 (≈ 150 µM) | CC(C)CN1C(=O)C(=O)N(Cc2ccccn2)C1=O
0.419 | 201 | 620 | – | – | 38.2 (≈ 177 µM) | Cc1csc(Nc2ccc(C#N)cc2)n1
0.521 | 14.2 | 124 | – | – | 36.4 (≈ 128 µM) | Cc1nc(C)c(CNc2cnn(-c3ccccc3)c2)s1
0.636 | 140 | 2250 | – | – | – | Cc1cnccc1-c1cnc(N(C)C)nc1-c1ccco1
0.704 | 39.7 | 83.1 | – | – | 28.5 (≈ 140 µM) | Cc1cc(N(C)C)nc(-n2ccnc2)n1
0.134 | 159 | 451 | – | – | 45 (≈ 128 µM) | CCOc1ccc(Nc2nc(-c3c(C)nc4ccccn34)cs2)cc1
– | – | – | – | – | 0.73 (≈ 2.16 µM) | COc1ccccc1-c1nc(-c2ccc(NC(C)=O)cc2)c(C)s1
0.667 | ≤ 4.74 | 49.9 | – | – | – | Cc1cccc(NCCN2C(=O)CCC2=O)n1
0.752 | – | – | – | – | 35.9 (≈ 146 µM) | Cc1ccc(-c2csc(CC(N)=O)n2)cc1C
2.23 | 16.7 | 438 | – | – | 43.5 (≈ 109 µM) | O=C(Nc1ccn(Cc2ccc(O)cc2C(F)(F)F)n1)c1c(F)cccc1F
0.58 | 12.9 | 131 | – | – | – | Cn1ccc(CSc2n[nH]c(-c3cc(F)cc(F)c3)n2)n1
0.572 | 89.3 | 605 | – | – | 40.1 (≈ 140 µM) | COc1ccc(Nc2ncnc3sccc23)c(OC)c1
0.536 | 59.6 | 350 | – | – | 46.6 (≈ 166 µM) | Cc1nccc(-c2cccc(NCc3cc(C)on3)c2)n1
– | ≤ 4.74 | ≤ 10.7 | – | – | 30.5 (≈ 119 µM) | CN(C)Cc1ccc(-c2ccccc2C(=O)O)cc1
– | ≤ 4.74 | ≤ 10.7 | – | – | – | CN(C)c1ncncc1NC(=O)c1ccc(C(F)(F)F)nc1
2.77 | 21.6 | 2910 | – | – | – | Cc1cccc(-c2cccc(C(=O)NCCC3(O)CCCC3)c2)n1
0.595 | 11.5 | 238 | – | – | 15.7 (≈ 49.9 µM) | CNC(=O)c1ccc(CN(C)c2c(F)cc(C#N)cc2F)cc1
0.705 | ≤ 4.74 | 52.3 | – | – | 29.3 (≈ 127 µM) | Cc1ccc(CCNC(=O)c2ccncc2)o1
0.791 | 164 | 1300 | – | – | 29.9 (≈ 79.3 µM) | O=C(c1ccccn1)N1CCCC(c2cccc(-c3cccc(Cl)c3)n2)C1 (configuration not stated)
2.24 | ≤ 4.74 | ≤ 10.7 | – | – | 48 (≈ 193 µM) | CCONC(=O)c1cncn1-c1ccc(F)cc1
0.593 | 7.18 | ≤ 10.7 | – | – | 32.2 (≈ 140 µM) | CCn1cc(NC(=O)c2ccccc2C)cn1
0.509 | 88.2 | 316 | – | – | 23.5 (≈ 96.2 µM) | Cc1n[nH]c(-c2c(C)c3cc(F)ccc3n2C)n1
– | – | – | – | – | 0.5 (≈ 1.47 µM) | CCn1c(=O)c2c(nc3n2CCN3c2cc(C)cc(C)c2)n(C)c1=O
– | ≤ 4.74 | ≤ 10.7 | – | – | – | COc1cc(OC)c2c(=O)cc(CCC(=O)O)oc2c1
